Experimental data as given in ChEMBL document CHEMBL1144089, “New geodiamolides from the sponge Cymbastela sp. collected in Papua New Guinea” (J Nat Prod, 1999).
Values after ≈ are worked out from the molar mass of the structure shown.

Columns and labels:
HEY = assay: Cytotoxicity against human HEY cells; type: functional, cell-based
[1] = Cytotoxicity against human U373 cells; type: functional, cell-based, U-373MG ATCC; conditions: U373 MG

## C/C1=C\[C@H](C)C[C@H](C)OC(=O)[C@H](C)NC(=O)[C@@H](Cc2ccc(O)c(I)c2)N(C)C(=O)[C@H](C)NC(=O)[C@@H](C)C1 [GEODIAMOLIDE A]
HEY; read-out: IC50
  IC50: 43 µg/mL (≈ 67 µM)
[1]; read-out: IC50
  IC50: 16 µg/mL (≈ 24.9 µM)

## C=C1C[C@H](C)C(=O)N[C@@H](C)C(=O)N(C)[C@H](Cc2ccc(O)c(I)c2)C(=O)N[C@@H](C)C(=O)O[C@@H](C)C[C@@H](C)C1=O [GEODIAMOLIDE G]
HEY
  IC50: 8.6 µg/mL (≈ 13.1 µM)
[1]
  IC50: 7.7 µg/mL (≈ 11.7 µM)
